# Biological target: T1, human GPR119 (Homo sapiens, UniProt Q8TDV5)
# T1 construct: expressed in transfected cells; host or cells: HEK-293 cell line stably expressing recombinant GPR119
# T1 sequence (Q8TDV5 1-335): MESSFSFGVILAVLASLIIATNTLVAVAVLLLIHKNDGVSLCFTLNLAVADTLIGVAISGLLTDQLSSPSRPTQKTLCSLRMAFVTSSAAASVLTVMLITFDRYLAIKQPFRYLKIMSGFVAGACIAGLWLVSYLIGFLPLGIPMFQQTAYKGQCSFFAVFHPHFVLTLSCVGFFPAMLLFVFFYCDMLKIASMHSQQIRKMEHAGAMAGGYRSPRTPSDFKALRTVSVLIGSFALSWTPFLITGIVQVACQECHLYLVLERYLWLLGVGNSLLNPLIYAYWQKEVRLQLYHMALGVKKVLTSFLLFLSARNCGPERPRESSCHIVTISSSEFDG
# Experiment: Functional cellular assay measuring GPR119-mediated cAMP release (HTRF), HEK-293 cells stably expressing recombinant GPR119
# Type: cell-based
# Details: cell line expressing human GPR119; cAMP response, 30 minutes at room temperature
# Description: Functional Cellular Assays Measuring GPR119-Mediated cAMP Release.
# Compounds of the invention, which are agonists of GPR119, were characterized by functional assays measuring the cAMP response of HEK-293 cell lines stably expressing recombinant GPR119 from man, mouse or rat, or by using a hamster cell line HIT-T15 expressing GPR119 endogenously. The cAMP content was determined using a kit based on homogenous time-resolved fluorescence (HTRF) from Cisbio Corp. (cat. no. 62AM4PEC). For preparation, cells were split into T175 culture flasks and grown to near confluency in medium (DMEM/10% FCS for HEK-293 cells, and F-12K medium/10% horse serum/2.5% FCS for HIT-T15 cells, respectively). Medium was then removed and cells washed with PBS lacking calcium and magnesium ions, followed by proteinase treatment with accutase (Sigma-Aldrich, cat. no. A6964). Detached cells were washed and resuspended in assay buffer (1×HBSS; 20 mM HEPES, 0.1% BSA, 2 mM IBMX) and cellular density determined. They were then diluted to 400000 cells/mL and 25 μL-aliquots dispensed to the wells of 96-well plates. For measurement, 25 μL of test compound in assay buffer was added and incubated for 30 minutes at room temperature. After addition of HTRF reagents diluted in lysis buffer, the plates were incubated for 1 hour, followed by measuring the fluorescence ratio at 665 vs. 620 nm. Potency of the agonists was quantified by determining the concentrations that caused 50% of the maximal response/activation (EC50). See Table 10 for exemplary data obtained using the cell line expressing human GPR119.
row,Structure (SMILES),EC50 [nM]
1,CC(C)CCOc1ccc(OC2CCN(c3ccc4c(c3)C(=O)CC4)C2=O)cc1 (stereo not drawn) [Example 1-01],385
2,O=C1CCc2ccc(N3CCC(Oc4ccc(Oc5ccc(F)cc5)cc4)C3=O)cc21 (stereo not drawn) [Example 1-02],895
3,O=C1CCc2c(F)cc(N3CC[C@@H](Oc4ccc(Oc5ccc(F)cc5)cc4)C3=O)cc21 [Example 1-03],33
4,O=C1CCc2ccc(N3CC[C@@H](Oc4ccc(Oc5ccccc5)cc4)C3=O)cc21 [Example 1-04],145
5,O=C1CCc2c(F)cc(N3CC[C@@H](Oc4ccc(OCCC5CC5)cc4)C3=O)cc21 [Example 1-05],45
6,O=C1CCc2ccc(N3CC[C@@H](Oc4ccc(Oc5ccc(F)cc5)nc4)C3=O)cc21 [Example 1-06],274
7,O=C1CCc2c(F)cc(N3CC[C@@H](Oc4ccc(Oc5ccc(F)cc5)nc4)C3=O)cc21 [Example 1-07],87
8,"O=C1CCc2c(F)cc(N3CC[C@@H](Oc4ccc(OCCC5CC5)nc4)C3=O)cc21 [Example 1-08, (R)-3-[6-(2-Cyclopropyl-ethoxy)-pyridin-3-yloxv]-1-(7-fluoro-3-oxo-indan-5-yl)-pyrrolidin-2-one]",8
9,O=C1CCc2ccc(N3CC[C@@H](Oc4ccc(OCCC5CC5)nc4)C3=O)cc21 [Example 1-09],64
10,O=C1CCCc2ccc(N3CC[C@@H](Oc4ccc(OCCC5CC5)nc4)C3=O)cc21 [Example 1-10],699
11,"O=C1CCc2c(F)cc(N3CC[C@@H](Oc4ccc(OCC5CC5)nc4)C3=O)cc21 [Example 1-11, (R)-3-(6-Cyclopropylmethoxy-pyridin-3-yloxy)-1-(7-fluoro-3-oxo-indan-5-yl)-pyrrolidin-2-one]",8
12,O=C1CCc2ccc(N3CC[C@@H](Oc4ccc(OCC5CC5)nc4)C3=O)cc21 [Example 1-12],327
13,CSc1ccc(O[C@@H]2CCN(c3cc(F)c4c(c3)C(=O)CC4)C2=O)cn1 [Example 1-13],368
14,CC(C)Sc1ccc(O[C@@H]2CCN(c3cc(F)c4c(c3)C(=O)CC4)C2=O)cn1 [Example 1-14],33
15,CCSc1ccc(O[C@@H]2CCN(c3cc(F)c4c(c3)C(=O)CC4)C2=O)cn1 [Example 1-15],70
16,O=C1CCc2c(F)cc(N3CC[C@@H](Oc4ccc(-c5ncc(CO)s5)nc4)C3=O)cc21 [Example 1-16],3810
17,O=C1CCc2c(F)cc(N3CC[C@@H](Oc4ccc(OCc5ccccc5)nc4)C3=O)cc21 [Example 1-17],39
18,O=C1CCc2c(Br)cc(N3CC[C@@H](Oc4ccc(OCC5CC5)nc4)C3=O)cc21 [Example 1-18],287
19,Cc1c(N2CC[C@@H](Oc3ccc(OCC4CC4)nc3)C2=O)cc(F)c2c1C(=O)CC2 [Example 1-19],692
20,O=C1CCc2ccc(N3CC[C@@H](Oc4ccc(OC5CC5)nc4)C3=O)cc21 [Example 1-20],87

row,Structure (SMILES),EC50 [nM]
1,COc1ccc(O[C@@H]2CCN(c3cc(F)c4c(c3)C(=O)CC4)C2=O)cn1 [Example 2-01],223
2,CCCCOc1ccc(O[C@@H]2CCN(c3cc(F)c4c(c3)C(=O)CC4)C2=O)cn1 [Example 2-02],27
3,O=C1CCc2c(F)cc(N3CC[C@@H](Oc4ccc(OC5CCOC5)nc4)C3=O)cc21 (stereo partly drawn) [Example 2-03],63
4,CC(C)(CO)COc1ccc(O[C@@H]2CCN(c3cc(F)c4c(c3)C(=O)CC4)C2=O)cn1 [Example 2-04],233
5,COCC(C)Oc1ccc(O[C@@H]2CCN(c3cc(F)c4c(c3)C(=O)CC4)C2=O)cn1 (stereo partly drawn) [Example 2-05],77
6,CCCC(C)Oc1ccc(O[C@@H]2CCN(c3cc(F)c4c(c3)C(=O)CC4)C2=O)cn1 (stereo partly drawn) [Example 2-06],18
7,"O=C1CCc2c(F)cc(N3CC[C@@H](Oc4ccc(OC5CCOCC5)nc4)C3=O)cc21 [Example 2-07, (R)-1-(7-Fluoro-3-oxo-indan-5-yl)-3-[6-(tetrahydro-pyran-4-yloxy)-pyridin-3-yloxy]-pyrrolidin-2-one]",45
8,"CCOc1ccc(O[C@@H]2CCN(c3cc(F)c4c(c3)C(=O)CC4)C2=O)cn1 [Example 2-08, (R)-3-(6-Ethoxy-pyridin-3-yloxy)-1-(7-fluoro-3-oxo-indan-5-yl)-pyrrolidin-2-one]",17
9,CC(Oc1ccc(O[C@@H]2CCN(c3cc(F)c4c(c3)C(=O)CC4)C2=O)cn1)C1CC1 (stereo partly drawn) [Example 2-09],16
10,CCC(C)COc1ccc(O[C@@H]2CCN(c3cc(F)c4c(c3)C(=O)CC4)C2=O)cn1 (stereo partly drawn) [Example 2-10],5
11,O=C1CCc2c(F)cc(N3CC[C@@H](Oc4ccc(OC5CCCOC5)nc4)C3=O)cc21 (stereo partly drawn) [Example 2-11],29
12,CC1(COc2ccc(O[C@@H]3CCN(c4cc(F)c5c(c4)C(=O)CC5)C3=O)cn2)COC1 [Example 2-12],99
13,COCCOc1ccc(O[C@@H]2CCN(c3cc(F)c4c(c3)C(=O)CC4)C2=O)cn1 [Example 2-13],141
14,CCC(C)Oc1ccc(O[C@@H]2CCN(c3cc(F)c4c(c3)C(=O)CC4)C2=O)cn1 (stereo partly drawn) [Example 2-14],12
15,O=C1CCc2c(F)cc(N3CC[C@@H](Oc4ccc(OCCOCCO)nc4)C3=O)cc21 [Example 2-15],289
16,O=C1CCc2c(F)cc(N3CC[C@@H](Oc4ccc(OCCCCO)nc4)C3=O)cc21 [Example 2-16],832
17,CCCCCOc1ccc(O[C@@H]2CCN(c3cc(F)c4c(c3)C(=O)CC4)C2=O)cn1 [Example 2-17],16
18,CCCOc1ccc(O[C@@H]2CCN(c3cc(F)c4c(c3)C(=O)CC4)C2=O)cn1 [Example 2-18],5
19,O=C1CCc2c(F)cc(N3CC[C@@H](Oc4ccc(OC5CCC(O)C5)nc4)C3=O)cc21 (stereo partly drawn) [Example 2-19],858
20,CC(C)=CCOc1ccc(O[C@@H]2CCN(c3cc(F)c4c(c3)C(=O)CC4)C2=O)cn1 [Example 2-20],33

row,Structure (SMILES),EC50 [nM]
1,O=C1CCc2c(F)cc(N3CC[C@@H](Oc4ccc(OCCn5cccn5)nc4)C3=O)cc21 [Example 2-21],456
2,CC(C)CCOc1ccc(O[C@@H]2CCN(c3cc(F)c4c(c3)C(=O)CC4)C2=O)cn1 [Example 2-22],9
3,CC(C)COc1ccc(O[C@@H]2CCN(c3cc(F)c4c(c3)C(=O)CC4)C2=O)cn1 [Example 2-23],7
4,"CC(C)Oc1ccc(O[C@@H]2CCN(c3cc(F)c4c(c3)C(=O)CC4)C2=O)cn1 [Example 2-24, (R)-1-(7-Fluoro-3-oxo-indan-5-yl)-3-(6-isopropoxy-pyridin-3-yloxy)-pyrrolidin-2-one]",13
5,O=C1CCc2c(F)cc(N3CC[C@@H](Oc4ccc(OCC5CCCO5)nc4)C3=O)cc21 (stereo partly drawn) [Example 2-25],13000
6,CC1CC1COc1ccc(O[C@@H]2CCN(c3cc(F)c4c(c3)C(=O)CC4)C2=O)cn1 (stereo partly drawn) [Example 2-26],11
7,CCOCCOc1ccc(O[C@@H]2CCN(c3cc(F)c4c(c3)C(=O)CC4)C2=O)cn1 [Example 2-27],277
8,O=C1CCc2c(F)cc(N3CC[C@@H](Oc4ccc(OCc5ccncc5)nc4)C3=O)cc21 [Example 2-28],1410
9,O=C1CC[C@H](COc2ccc(O[C@@H]3CCN(c4cc(F)c5c(c4)C(=O)CC5)C3=O)cn2)N1 [Example 2-29],11600
10,O=C1CC[C@@H](COc2ccc(O[C@@H]3CCN(c4cc(F)c5c(c4)C(=O)CC5)C3=O)cn2)N1 [Example 2-30],16300
11,O=C1CCc2c(F)cc(N3CC[C@@H](Oc4ccc(OCc5cccnc5)nc4)C3=O)cc21 [Example 2-31],1470
12,O=C1CCc2c(F)cc(N3CC[C@@H](Oc4ccc(OCC5COCO5)nc4)C3=O)cc21 (stereo partly drawn) [Example 2-32],103
13,COC(C)CCOc1ccc(O[C@@H]2CCN(c3cc(F)c4c(c3)C(=O)CC4)C2=O)cn1 (stereo partly drawn) [Example 2-33],71
14,CCC(C)CCOc1ccc(O[C@@H]2CCN(c3cc(F)c4c(c3)C(=O)CC4)C2=O)cn1 (stereo partly drawn) [Example 2-34],23
15,O=C1CCc2c(F)cc(N3CC[C@@H](Oc4ccc(OCC(F)F)nc4)C3=O)cc21 [Example 2-35],26
16,O=C1CCc2c(F)cc(N3CC[C@@H](Oc4ccc(OCCn5ccnc5)nc4)C3=O)cc21 [Example 2-36],44200
17,Cn1ccnc1COc1ccc(O[C@@H]2CCN(c3cc(F)c4c(c3)C(=O)CC4)C2=O)cn1 [Example 2-37],24300
18,O=C1CC[C@H](COc2ccc(O[C@@H]3CCN(c4cc(F)c5c(c4)C(=O)CC5)C3=O)cn2)O1 [Example 2-38],947
19,O=C1CCc2c(F)cc(N3CC[C@@H](Oc4ccc(OCCC(F)(F)F)nc4)C3=O)cc21 [Example 2-39],18
20,CSCCCOc1ccc(O[C@@H]2CCN(c3cc(F)c4c(c3)C(=O)CC4)C2=O)cn1 [Example 2-40],103
